Key:
Mus musculus [1] = assay: Anticonvulsant activity in Swiss albino mouse assessed as duration of pentylenetetrazole-induced seizures at 10 mg/kg administered 1 hr before PTZ challenge; format: functional
Mus musculus [2] = assay: Anticonvulsant activity in Swiss albino mouse assessed as protection against pentylenetetrazole-induced seizures at 10 mg/kg administered 1 hr before PTZ challenge relative to control; format: functional

## Fc1ccc(/C=C/c2nc3ccccc3n3cnnc23)cc1
Mus musculus [1]
  Activity: 0 s
Mus musculus [2]
  Activity: 100%

## Fc1ccc(/C=C/c2nc3ccccc3n3c(C(F)(F)F)nnc23)cc1
Mus musculus [1]
  Activity: 0 s
Mus musculus [2]
  Activity: 100%

## COc1ccc(-c2nnc3c(/C=C/c4ccc(Cl)cc4)nc4ccccc4n23)cc1
Mus musculus [1]
  Activity: 12 s
Mus musculus [2]
  Activity: 0%

## COc1ccc(/C=C/c2nc3ccccc3n3c(C)nnc23)cc1
Mus musculus [1]
  Activity: 14 s
Mus musculus [2]
  Activity: 0%

## COc1ccc2cc(/C=C/c3nc4ccccc4n4c(C(F)(F)F)nnc34)ccc2c1
Mus musculus [1]
  Activity: 12 s
Mus musculus [2]
  Activity: 0%

## Cc1nnc2c(/C=C/c3ccc(F)cc3)nc3ccccc3n12
Mus musculus [1]
  Activity: 0 s
Mus musculus [2]
  Activity: 100%

## CCOc1ccc(-c2nnc3c(/C=C/c4ccc(Cl)cc4)nc4ccccc4n23)cc1O
Mus musculus [1]
  Activity: 12 s
Mus musculus [2]
  Activity: 0%

## Cc1nnc2c(/C=C/c3cccc([N+](=O)[O-])c3)nc3ccccc3n12
Mus musculus [1]
  Activity: 11 s
Mus musculus [2]
  Activity: 0%

## Fc1ccc(/C=C/c2nc3ccccc3n3nnnc23)cc1
Mus musculus [1]
  Activity: 0 s
Mus musculus [2]
  Activity: 100%

## COc1ccc(/C=C/c2nc3ccccc3n3c(C(F)(F)F)nnc23)cc1
Mus musculus [1]
  Activity: 0 s
Mus musculus [2]
  Activity: 100%

## COc1ccc(/C=C/c2nc3ccccc3n3nnnc23)cc1
Mus musculus [1]
  Activity: 11 s
Mus musculus [2]
  Activity: 0%

## C(=C\c1nc2ccccc2n2nnnc12)/c1ccccc1
Mus musculus [1]
  Activity: 0 s
Mus musculus [2]
  Activity: 100%

## COc1ccc2cc(/C=C/c3nc4ccccc4n4nnnc34)ccc2c1
Mus musculus [1]
  Activity: 8 s
Mus musculus [2]
  Activity: 0%

## COc1ccc(/C=C/c2nc3ccccc3n3cnnc23)cc1
Mus musculus [1]
  Activity: 14 s
Mus musculus [2]
  Activity: 0%

## O=[N+]([O-])c1cccc(/C=C/c2nc3ccccc3n3cnnc23)c1
Mus musculus [1]
  Activity: 12 s
Mus musculus [2]
  Activity: 0%

## O=[N+]([O-])c1cccc(/C=C/c2nc3ccccc3n3nnnc23)c1
Mus musculus [1]
  Activity: 11 s
Mus musculus [2]
  Activity: 0%

## Fc1ccc(/C=C/c2nc3ccccc3n3c(-c4ccc(-c5ccccc5)cc4)nnc23)cc1
Mus musculus [1]
  Activity: 8 s
Mus musculus [2]
  Activity: 0%

## COc1ccc(/C=C/c2nc3ccccc3n3c(-c4ccc(F)cc4)nnc23)cc1
Mus musculus [1]
  Activity: 0 s
Mus musculus [2]
  Activity: 100%
